Data reported in patent publication US20130079305A1, “3-SUBSTITUTED VINYLBORONATES AND USES THEREOF” (Yissum Research Development Company of the Hebrew …, priority 2010, published 2013).
pIC50: −log10 of the molar value.

How the values were obtained:
[1] = system: HT-29 (colon cancer) cells; assay: MTT assay, HT-29 (colon cancer) cells; format: cell-based; conditions: Homo sapiens, HT-29 cells, 72 h incubation
Method: (§1) ARH-77 (myeloma) and HT-29 (colon cancer) cells were grown and counted, and were thereafter plated in 96-wells plates to get 0.1×10^6 cells/well. The plates were left in the incubator overnight for cells attachment and the tested compounds were then added to the cells. The tested concentrations of the compounds were 1, 2, 5, 10, 20, 50 and 100 μM. The compounds were incubated with the cells for 24 hours, 48 hours or for 72 hours, and were thereafter subjected to the MTT assay.

[2] = system: ARH-77 (myeloma) cells; assay: MTT assay, ARH-77 (myeloma) cells; format: cell-based; conditions: ARH-77 cells; for pIC50: Homo sapiens, 72 h incubation
Method: as §1

Row | SMILES | pIC50 [1] | pIC50 [2] | IC50, ARH-77, 72 h incubation [2]
1 | CCC/C(=C\B1OC(C)(C)C(C)(C)O1)C1(O)CCCc2ccccc21 (centres unmarked) [Compound E3] | 4.07 | 4.19 | 
2 | CCC/C(=C\B1OC(C)(C)C(C)(C)O1)C(O)c1ccccc1 (centres unmarked) [Compound E4] | < 4.00 |  | not active
3 | CCCCCCCC/C(=C\B1OC(C)(C)C(C)(C)O1)C(O)(c1ccccc1)C1CC1 (centres unmarked) [Compound E7] | 4.82 | 5.22 | 

Results, then the compound that gave them:

Row | pIC50 [1] | pIC50 [2] | IC50, ARH-77, 72 h incubation [2] | SMILES
4 | 4.07 | 4.27 |  | CCC/C(=C\B1OC(C)(C)C(C)(C)O1)C(O)(c1ccccc1)C1CC1 (centres unmarked) [Compound E2]
5 | 4.26 | 4.52 |  | CCCCCCC(C)(O)/C(=C/B1OC(C)(C)C(C)(C)O1)CCC (centres unmarked) [Compound E5]
6 | 4.10 | 4.27 |  | CCCCC(C)(O)/C(=C/B1OC(C)(C)C(C)(C)O1)CCC (centres unmarked) [Compound E6]
7 | < 4.00 | 4.11 |  | CCCCCCCC/C(=C\B1OC(C)(C)C(C)(C)O1)C(C)(O)CCCCCC (centres unmarked) [Compound E8]
